According to patent publication US8691799B2, “Materials and methods for treatment of cancer and identification of anti-cancer compounds” (priority 2001, dated 2014):

Assays:
Calu-1 tumors = test: Antitumor activity, Calu-1 xenograft in nude mice; type: in vivo; conditions: 1 mg/kg/day i.p.
Description: Antitumor Activity in the Nude Mouse Tumor Xenograft Model. Nude mice and C57 BL-6 black mice (National Cancer Institute, Bethesda, Md.) were maintained in accordance with the Institutional Animal Care and Use Committee (IACUC) procedures and guidelines. v-Src- and oncogenic H-Ras-transformed NIH 3T3, A549, MDA-MB-468 and Calu-1 cells were harvested, resuspended in PBS and injected s.c. into the right and left flank (10×10^6 cells per flank) of 8 week old female nude mice as reported previously (Sun, J. et al. Cancer Res., 1999, 59:4919-4926). Similarly, murine B16-F10 Melanoma cells were injected s.c. into the right and left flank (10^6 cells per flank) of C57 black mice. When tumors reached about 150 mm^3, animals were randomized (five animals per group; two tumors per animal) and dosed i.p. with 0.2 ml once daily. Control animals received DMSO (20%) vehicle whereas treated animals were injected with JSI-124 (1 mg/kg/day) in 20% DMSO in water. The tumor volumes were determined by measuring the length (l) and the width (w) and calculating the volume (V=1w^2/2) as described previously (Sun, J. et al. Cancer Res., 1999, 59:4919-4926). Statistical significance between control and treated animals were evaluated by using Student's t-test. […] Percent surviving mice was determined by monitoring the death of mice until all mice died. […]

Src = Src kinase autophosphorylation assay on immunoprecipitates; type: biochemical; conditions: immunoprecipitates from A549, MDA-MB-468 or v-Src/NIH 3T3 cells
Protocol: Src Kinase Assay. A549, MDA-MB-468, and v-Src cells were harvested and lysed for 30 min on ice in RIPA150 buffer (10 mM Tris, pH 7.5, 150 mM NaCl, 10% glycerol, 5 mM EDTA, 1% Triton-X-100, 0.1% SDS, 100 μM sodium orthovanadate, 10 μg/ml aprotinin, 10 μg/ml leupeptin, 1 μg/ml antipain). Samples were spun at high speed to clear, then 1000 μg of protein were immunoprecipitated per treatment condition with 2 μg v-Src antibody (Ab-1, Oncogene Research Products, San Diego, Calif.) rocking overnight at 4° C. 25 μl of protein A/G PLUS agarose then was added and rocking continued for 4 hr at 4° C. Samples were spun to collect agarose pellet, and pellet washed three times in RIPA150 buffer, twice in RIPA10 buffer (10 mM Tris, pH 7.5, 10 mM NaCl, 10% glycerol, 5 mM EDTA, 1% Triton-X-100, 0.1% SDS, 100 μM sodium orthovanadate 10 μg/ml aprotinin, 10 μg/ml leupeptin, 1 μg/ml antipain), and three times in 40 mM Tris, pH 7.4. Pellet was then resuspended in 30 μl kinase reaction buffer (20 mM Tris, pH 7.4, 5 mM MgCl2) containing 10 μCi γ-[^32P]ATP. Inhibitors were preincubated for several minutes before the addition of the ATP. Kinase reactions were carried out at room temperature for 15 min. Reaction was stopped with the addition of 2×SDS-PAGE sample buffer. Samples were boiled and run on 10% SDS-PAGE gels. Autophosphorylation results were visualized by autoradiography.

phospho-Akt = test: Western blotting for phospho-Akt; type: cell-based, human; conditions: A549 and MDA-MB-468 cells, up to 10 μM
Protocol: Western Blotting. Treated cell samples were lysed in 30 mM Hepes, pH 7.5, 10 mM NaCl, 5 mM MgCl2, 25 mM NaF, 1 mM EGTA, 1% Triton-X-100, 10% glycerol, 2 mM sodium orthovanadate, 10 μg/ml aprotinin, 10 μg/ml soybean trypsin inhibitor, 25 μg/ml leupeptin, 2 mM PMSF, and 6.4 mg/ml p-nitrophenylphosphate. Phospho-STAT3, phospho-AKT, phospho-MEK, and phospho-p42/p44 MAPK antibodies were obtained from Cell Signaling Technologies, Cambridge, Mass. Antibodies to STAT3, JAK2, and phospho-INK were purchased from Santa Cruz Biotechnology, Santa Cruz, Calif. Phospho-JAK2 antibody came from Upstate Biotechnology, Lake Placid, N.Y. Membranes were blocked in either 5% milk in PBS, pH 7.4, containing 0.1% Tween-20 (PBS-T) or 1% BSA in TBS, pH 7.5, containing 0.1% Tween-20 (TBS-T). Phospho-specific antibodies (excepting P-MAPK and P-JNK) were incubated in 1% BSA in TBS-T while all other antibodies were diluted in 5% milk in PBS-T for either 2 hr at room temperature or overnight at 4° C. HRP-conjugated secondary antibodies (Jackson ImmunoResearch) were diluted in 5% milk in either PBS-T or TBS-T at 1:1000 dilution for one hour at room temperature. Western blots were visualized using enhanced chemiluminescence as described previously (Blaskovich, M. A. et al. Nat. Biotechnol., 2000, 18:1065-1070).

For CC(C)(O)/C=C/C(=O)[C@](C)(O)[C@H]1[C@H](O)C[C@@]2(C)[C@@H]3CC=C4[C@@H](C=C(O)C(=O)C4(C)C)[C@]3(C)C(=O)C[C@]12C [JSI-124, cucurbitacin I], the “effect on growth of Calu-1 tumors” value (Calu-1 tumors) was “little effect”, the “Src kinase activity (autophosphorylation) in vitro” value (Src) was “not affected” and the phospho-Akt levels (phospho-Akt) was “no inhibitory effect”.
